Assay results reported in ChEMBL document CHEMBL1201862, “PubChem BioAssay data set” (2004).
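Protocol summary: plate cells (96-well), add compound at 5 concentrations, incubate 48 h, interpolate endpoints linearly. The concentration for 50% growth inhibition is given as GI50.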 Active and inactive are the calls of the source. Rule as the data show it: active = GI50 up to about 1.1 µM and inactive = higher.

Columns and labels:
Assay in all cases: NCI anticancer screen, dose series, 48 h
[1] = tested on: A498
[2] = tested on: A549
[3] = tested on: CCRF-CEM
[4] = tested on: COLO 205
[5] = tested on: EKVX
[6] = tested on: HCT-116
[7] = tested on: HCT-15
[8] = tested on: K562
[9] = tested on: KM12
[10] = tested on: LOX IMVI
[11] = tested on: NCI-H226
[12] = tested on: NCI-H23
[13] = tested on: NCI-H460
[14] = tested on: OVCAR-5
[15] = tested on: OVCAR-8
[16] = tested on: SF-268
[17] = tested on: SF-295
[18] = tested on: SK-MEL-28
[19] = tested on: SW-620
[20] = tested on: UO-31

| SMILES | GI50 [1] | GI50 [2] | GI50 [3] | GI50 [4] | GI50 [5] | GI50 [6] | GI50 [7] [µM] | GI50 [8] | GI50 [9] | GI50 [10] | GI50 [11] | GI50 [12] | GI50 [13] | GI50 [14] | GI50 [15] | GI50 [16] | GI50 [17] | GI50 [18] | GI50 [19] | GI50 [20] |
| --- | --- | --- | --- | --- | --- | --- | --- | --- | --- | --- | --- | --- | --- | --- | --- | --- | --- | --- | --- | --- |
| Cc1c2c(cc3c1[nH]c1ccccc13)C=NCC2 | 10.5 µM (inactive) | 15.2 µM (inactive) | 7.48 µM (inactive) | 7.13 µM (inactive) | 33 µM (inactive) | 6.34 µM (inactive) | 13.1 | 6.17 µM (inactive) | 8.65 µM (inactive) | 8.09 µM (inactive) | 20.7 µM (inactive) | 19.7 µM (inactive) | 8.53 µM (inactive) | 22 µM (inactive) | 10.2 µM (inactive) | 16.8 µM (inactive) | 11.2 µM (inactive) | 7.36 µM (inactive) | 8.43 µM (inactive) | 24 µM (inactive) |
| CC(=O)NC1=C[C@@H]([C@H]2COC(C)(C)O2)OC1=O | > 100 µM (inactive) | > 100 µM (inactive) | > 100 µM (inactive) | > 100 µM (inactive) | > 100 µM (inactive) | > 100 µM (inactive) | > 100 | > 100 µM (inactive) | > 100 µM (inactive) | > 100 µM (inactive) | > 100 µM (inactive) | > 100 µM (inactive) | > 100 µM (inactive) | > 100 µM (inactive) | > 100 µM (inactive) | > 100 µM (inactive) | > 100 µM (inactive) | > 100 µM (inactive) | > 100 µM (inactive) | > 100 µM (inactive) |
